Key:
SERPINB9 [1] = target: T1, SERPINB9 (Homo sapiens, UniProt P50453); assay: Isothermal titration calorimetry (ITC); assay type: binding; conditions: 20 μM SERPINB9 titrated with 200 μM compound, single site model
T1 construct: A construct of human SERPINB9 covering residues 2-376 in the pFastBacl vector; made in house; host or cells: insect Tni (Trichoplusia ni) cells, baculovirus
T1 sequence (P50453 2-376): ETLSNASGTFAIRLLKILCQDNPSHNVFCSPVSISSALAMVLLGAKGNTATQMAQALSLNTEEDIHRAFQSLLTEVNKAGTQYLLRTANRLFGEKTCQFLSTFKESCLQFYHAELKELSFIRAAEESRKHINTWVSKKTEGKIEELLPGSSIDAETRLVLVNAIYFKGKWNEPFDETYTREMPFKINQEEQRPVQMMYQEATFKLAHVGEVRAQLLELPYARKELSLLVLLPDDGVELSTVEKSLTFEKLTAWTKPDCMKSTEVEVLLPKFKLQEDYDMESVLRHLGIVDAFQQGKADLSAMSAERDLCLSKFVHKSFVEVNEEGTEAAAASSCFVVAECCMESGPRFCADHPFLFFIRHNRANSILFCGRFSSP
Experimental: In an attempt to produce a soluble variant of Sb9, a construct was designed in which a maltose-binding protein (MBP) was added at the N-terminus (FIG. 4B). Sb9 was soluble in multiple growth media conditions using this strategy. The condition (1 mM IPTG, 37° C., 3 h) for best expression was selected for biomass production with 5 L culture. The cells were lysed and clarified by centrifugation. The fusion protein was then captured by Ni-NTA affinity purification, such that it was eluted using high concentration imidazole. Then, the resulting protein was further purified by anionic exchange chromatography using a MonoQ column and a NaCl gradient for elution. An amount of 31.4 mg protein was obtained. The purified Sb9 protein was characterized by SDS-PAGE and MALDI-TOF mass spectrometry (MS). A construct of human SERPINB9 covering residues 2-376 in the pFastBacl vector (Invitrogen) was overexpressed in insect Tni (Trichoplusia ni.) cells adapted for suspension culture in ESF921 medium (Expression systems). Cells were grown at 27° C. to a density of ˜2 million cells per mL, infected with baculovirus containing SERPINB9 construct, collected by centrifugation around 60 hrs post-infection, and stored at −80° C. […]

SERPINB9 [2] = target: T1, SERPINB9; assay: Ligand-detected NMR (DLB, STD, CPMG-R2); assay type: binding
Description: Ligand-focused NMR. To test the binding of Compound 27 and Compound 225 to SERPINB9, we used three ligand-detected nuclear magnetic resonance (NMR) methods: differential line broadening (DLB), saturation transfer difference (STD), and Carr-Purcell-Meiboom-Gill-transverse relaxation rate (CPMG-R2). […] Second, on-resonance saturation of SERPINB9 decreased the intensity of compound peaks in the STD experiment, indicating transmission of magnetization energy from SERPINB9 to proximal ligands. Finally, as ligands engaging the target protein relax faster (compared to free small molecules that have slow transverse relaxation rates in CPMG-R2 experiments), we saw a decreased relaxation time in the presence of a protein directly indicating binding of the ligand to that protein.

MBP-Sb9 = target: T2, MBP-Sb9 (Homo sapiens, UniProt P50453); assay: Saturation-Transfer Difference (STD) NMR assay; assay type: binding; conditions: 420 μM compound, 45 μM Sb9 protein, PBS pH 7.0, 25° C.
T2 construct: made in house
T2 sequence (P50453 2-376): T1 sequence (P50453 2-376)
Description: The Saturation-Transfer Difference (STD) NMR assay was used to evaluate the binding of the compound of Formula (III) to Sb9. […] The saturation period was 3.0 seconds with irradiation at 0 ppm (on-resonance excitation) and −20 ppm (off-resonance excitation). The number of scans was 160 for the on and off-resonance spectra, respectively. Spectra were processed using Topspin software and apodized with exponential multiplication with 1.0 Hz line-broadening.
The Saturation-Transfer Difference (STD) NMR assay was used to evaluate the binding of the compounds of Formulas (I) and (II) to Sb9. […] The saturation period was 3.0 seconds with irradiation at 0.7 ppm (on-resonance excitation) and 20 ppm (off-resonance excitation). The number of scans was 800. The spectra were processed using Topspin software with 1.0 Hz line-broadening.
The Saturation-Transfer Difference (STD) NMR assay as described herein was used to evaluate the binding of the compound of Formula (III) to Sb9.

cancer cells = assay: Caspase-3 immunofluorescence in cancer cells; assay type: cell-based; conditions: 200 μM, 48 hrs
Experimental: 1×10^4 cancer cells were seeded in an 8-well chamber and treated with 200 μM of the compounds of Formulas (I) and (II) for 48 hrs. Controls were the equal amount of DMSO. Cells were stained with anti-caspase3. DAPI was used to counterstain the cell nuclei. The stained tissue sections were visualized using an EVOS™ FL Auto 2 Imaging System.

4T1 breast tumors = assay: 4T1 breast tumor model in BALB/c mice; assay type: in vivo, mouse; conditions: i.p. twice a day 14 days
Experimental: (§1) Mice were anesthetized with isoflurane, and tumor cell lines (B16, A375, and 4T1) were gently injected subcutaneously in the flanks or mammary glands of mice. One hundred thousand cells (1×10^5 cells) were injected per mouse for most of the experiments. However, twenty-five thousand cells (25×10^3 cells) were injected per mouse for the experiments using the compound of Formula (III). Upon 4 hrs post-implantation, 300 μg of the compound of Formula (III) was administered twice a day intraperitoneally for 14 days. Tumor growth was monitored three times per week by digital caliper (Fisherbrand™ Traceable™ Digital Calipers).
Sb9 is highly expressed in human primary breast tumor cells (FIG. 6D) and in the stromal cells within the TME (FIGS. 6D-6E). Whether the compound of Formula (III) could be used to treat mice implanted with 4T1 breast tumor cells was therefore determined. […] Treatment with the compound of Formula (III) increased the median survival time (MST) of mice bearing 4T1 breast tumors and receiving treatment with the compound of Formula (III) as compared to mice bearing 4T1 breast tumors and not receiving treatment (MST=28 days vs MST=22 days, respectively) (FIG. 6G).
For mouse Breast Cancer model, 1×10^5 4T1 cells were subcutaneously implanted into the fourth mammary pad of BABL/c mice, and mice were separated randomly into three groups: Control, compound of Formula (I), and compound of Formula (II). In the compound of Formula (I) group, mice were treated with the compound of Formula (I) for 14 days consecutively ([…], i.p, twice a day). In the compound of Formula (II) group, mice were administrated the compound of Formula (II) 14 days consecutively (300 μg/mouse, i.p, twice a day). Tumor sizes were measured every 3 days from day 5 post-tumor implantation and calculated with formula length×width^2/2.

[3] = test system: B16-WT mouse melanoma tumors; assay: B16 melanoma tumor model in C57BL/6 mice; assay type: in vivo
Experimental: as §1
The anti-tumor activity of the compound of Formula (III) in vivo was assessed. […] Treatment with the compound of Formula (III) increased the median survival time (MST) of mice bearing B 16-WT mouse melanoma tumors and receiving treatment with the compound of Formula (III) as compared to mice bearing B16-WT melanoma tumors and not receiving treatment (MST=39 days vs MST=26 days, respectively) (FIG. 51B). Next, the effect of the compound of Formula (III) on tumor immunity was examined.
The efficacy of the compound of Formula (III) was assessed in C57BL/6J mice (FIG. 18). B16 mouse melanoma cells were implanted subcutaneously into the right flanks of C57BL/6J mice, and the mice were randomized into three groups: (1) no treatment (control), (2) treatment with anti-PD1, and (3) treatment with Formula (III). The mice in the anti-PD1 group received 200 μg of anti-PD1 iv every 3 days, and those in the Formula (III) group received 300 μg of Formula (III) twice a day consecutively for 14 days.
A survival study using the compound of Formula (IV) in mice harboring B16 melanoma was performed. Mice implanted with B16 tumors were treated with the compound of Formula (IV) (n=8) and compared to a control group having B16 tumors and not receiving treatment with the compound of Formula (IV) (n=8).

B16 melanoma cells = assay: Caspase-3 activity assay (EnzChek Caspase-3 Assay Kit), caspase-3 induction in tumor cells; assay type: cell-based, mouse
Outline: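 B16 melanoma cells exposed to compounds for 24 h, lysed on ice 30 min, and lysate incubated with Z-DEVD-R110 substrate about 30 min at room temperature. Fluorescence read at ~496/520 nm against untreated-cell and no-enzyme controls; caspase-3 induction serves as surrogate for GrB activity from Sb9 inhibition.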

CCN(C)C(=O)c1ccc2nc(-c3ccccc3)oc2c1 [Compound 27, N-ethyl-N-methyl-2-phenyl-1,3-benzoxazole-6-carboxamide]
Kd (SERPINB9 [1]): 21.5 µM | binding to SERPINB9 by ligand-detected NMR (SERPINB9 [2]): SERPINB9 binders

CCOc1ccc(C(=O)NCc2ccccc2)cc1O [Compound 227, N-benzyl-4-ethoxy-3-hydroxybenzamide]
Kd (SERPINB9 [1]): 28.8 µM | binding to SERPINB9 by ligand-detected NMR (SERPINB9 [2]): SERPINB9 binders

COC(=O)c1cc(N)c(O)cc1NC(=O)OC(C)(C)C [Formula (I), methyl 5-amino-2-((tert-butoxycarbonyl)amino)-4-hydroxybenzoate]
binding to MBP-Sb9 by STD NMR (MBP-Sb9): confirmed the binding activities | caspase-3 expression compared to DMSO (cancer cells): significantly increased caspase-3 expression | tumor size vs Control group (4T1 breast tumors; Day 11 post-tumor implantation): significantly decreased | tumor size vs Control group (4T1 breast tumors; Day 14 post-tumor implantation): significantly decreased

COC(=O)c1cc(N)c(O)cc1NC(=O)c1ccccc1 [Formula (II), methyl 5-amino-2-benzamido-4-hydroxybenzoate]
binding to MBP-Sb9 by STD NMR (MBP-Sb9): confirmed the binding activities | caspase-3 expression compared to DMSO (cancer cells): significantly increased caspase-3 expression | increase of caspase-3 expression, comparison between compounds (cancer cells): higher than the group treated with the compound of Formula (I) | tumor size vs Control group (4T1 breast tumors; Day 14 post-tumor implantation): significantly decreased

NC(=O)c1ccc(O)c(O)c1 [Formula (IV), 3,4-dihydroxybenzamide]
binding to MBP-Sb9 by STD NMR (MBP-Sb9): clearly show inter-molecular interaction of all aromatic peaks | tumor size vs Control group ([3]; Day 22 post-tumor implantation (FIG. 17A)): decreased | melanoma progression in vivo ([3]; mice bearing B16 tumors, n=8 (FIG. 17A)): suppressed melanoma progression | median survival time (MST) ([3]; mice bearing B16 tumors, n=8 (FIG. 17B)): 34 days

CCOC(=O)CC1CCCCN1C(=O)c1ccc2nc(-c3cccc(OC)c3)oc2c1 (stereo not drawn) [ethyl (1-{[2-(3-methoxyphenyl)-1,3-benzoxazol-6-yl]carbonyl}-2-piperidinyl)acetate]
Ratio of caspase-3 activity to Formula (III) (B16 melanoma cells): 0.1479

CCOC(=O)CCNC(=O)c1ccc2oc(-c3cccc(F)c3)nc2c1 [ethyl N-{[2-(3-fluorophenyl)-1,3-benzoxazol-5-yl]carbonyl}-beta-alaninate]
Ratio of caspase-3 activity to Formula (III) (B16 melanoma cells): 0.09329

CCOC(=O)CCNC(=O)c1ccc2nc(-c3cccc(OC)c3)oc2c1 [ethyl N-{[2-(3-methoxyphenyl)-1,3-benzoxazol-6-yl]carbonyl}-beta-alaninate]
Ratio of caspase-3 activity to Formula (III) (B16 melanoma cells): 0.1049

COC(=O)C1CCN(C(=O)c2ccc3nc(-c4cccc(OC)c4)oc3c2)CC1 [methyl 1-{[2-(3-methoxyphenyl)-1,3-benzoxazol-6-yl]carbonyl}-4-piperidinecarboxylate]
Ratio of caspase-3 activity to Formula (III) (B16 melanoma cells): 0.1376

COC(=O)CCCNC(=O)c1ccc2nc(-c3cccc(OC)c3)oc2c1 [methyl 4-({[2-(3-methoxyphenyl)-1,3-benzoxazol-6-yl]carbonyl}amino)butanoate]
Ratio of caspase-3 activity to Formula (III) (B16 melanoma cells): 0.3858

— US20230255906A1, “Targeting Serpin B9 in Cancer” (The Brigham and Women`s Hospital, Inc., priority 2020, published 2023)
